ChEMBL document CHEMBL1123114, “Structure-activity relationships of arylimidazopyridine cardiotonics: discovery and inotropic activity of 2-[2-methoxy-4-(methylsulfinyl)phenyl]-1H-imidazo[4,5-c]pyridine” (1985)

How the values were obtained:
Canis familiaris [1] = test: maximum percent increase in contractility in anesthetized dog when administered 4 mg/Kg intravenously; assay type: functional, Canis lupus familiaris
Felis catus [2] = organism: Felis catus; test: Response ratio = (percent increase to drug)/(percent increase to 10 E-4 M isoproterenol); assay type: functional
Felis catus [3] = organism: Felis catus; test: Response ratio = (percent increase to drug)/(percent increase to 10 E-5 M isoproterenol); assay type: functional
Felis catus [4] = organism: Felis catus; test: Compound tested for contractility in isolated cat papillary muscle at 10 e-5 M.; assay type: functional
Felis catus [5] = organism: Felis catus; test: Compound tested for contractility in isolated cat papillary muscle at 10 e-4 M.; assay type: functional
Canis familiaris [6] = test: Compound tested for contractility in anesthetized dog when administered intravenously.; assay type: functional; settings: Canis lupus familiaris, iv
Canis familiaris [7] = test: Percent change in mean arterial blood pressure in anesthetized dog; assay type: functional, Canis lupus familiaris
Canis familiaris [8] = test: Percent change in heart rate in anesthetized dog; assay type: functional, Canis lupus familiaris
Felis catus [9] = organism: Felis catus; test: Response ratio = (percent increase to drug)/(percent increase to 10 E-6 M isoproterenol); assay type: functional
Felis catus [10] = organism: Felis catus; test: Compound tested for contractility in isolated cat papillary muscle at 10 e-6 M.; assay type: functional
Canis familiaris [11] = test: Percent change in heart rate in anesthetized dog; ED50 not obtained; assay type: functional, organism-based; settings: Canis lupus familiaris
Canis familiaris [12] = test: Percent change in mean arterial blood pressure in anesthetized dog; ED50 not obtained; assay type: functional, organism-based; settings: Canis lupus familiaris
Canis familiaris [13] = test: Compound tested for contractility in anesthetized dog when administered intravenously; ED50 not obtained; assay type: functional, organism-based; settings: Canis lupus familiaris

Compound	Increase (Canis familiaris [1])	Response ratio (Felis catus [2])	Response ratio (Felis catus [3])	Control (Felis catus [4])	Control (Felis catus [5])	ED50 (Canis familiaris [6])	Change (Canis familiaris [7])	Change (Canis familiaris [8])	Response ratio (Felis catus [9])	Control (Felis catus [10])	ED50 (Canis familiaris [11])	ED50 (Canis familiaris [12])	ED50 (Canis familiaris [13])
COc1cc(Oc2ccccc2)ccc1-c1nc2cc[nH]cc-2n1	<50%	0.76	0.3	122%	155%	–	–	–	–	–	–	–	–
CN(C)c1ccc(-c2nc3cc[nH]cc-3n2)cc1	<50%	1.04	-0.08	94%	175%	–	–	–	–	–	–	–	–
c1ccc(-c2nc3cc[nH]cc-3n2)cc1	–	1.97	0.08	106%	242%	2.5 mg/kg	-15%	13%	–	–	–	–	–
COc1ccc(-c2nc3cc[nH]cc-3n2)c(OCC[S+](C)[O-])c1 (stereo not drawn)	–	1.19	0.32	123%	186%	5.2 mg/kg	-37%	-4%	–	–	–	–	–
CCOc1cc(S(C)(=O)=O)ccc1-c1nc2cc[nH]cc-2n1	–	1.36	0.51	137%	198%	0.07 mg/kg	-11%	7%	–	–	–	–	–
CCOc1cc([S+](C)[O-])ccc1-c1nc2cc[nH]cc-2n1 (stereo not drawn)	–	2.25	1.15	183%	262%	0.1 mg/kg	-4%	14%	0.18	113%	–	–	–
c1ccc(-c2nc3ccc[nH]c-3n2)cc1	–	0.15	0.01	101%	112%	8 mg/kg	-36%	7%	–	–	–	–	–
COc1cc(S(C)(=O)=O)ccc1-c1nc2ccncc2[nH]1	–	1.68	1.05	176%	221%	0.02 mg/kg	-5%	8%	–	–	–	–	–
CCCOc1cc([S+](C)[O-])ccc1-c1nc2cc[nH]cc-2n1 (stereo not drawn)	–	0.82	0.3	122%	159%	1 mg/kg	-33%	10%	–	–	–	–	–
COc1cc(S(C)(=O)=O)ccc1-c1nc2ccc[nH]c-2n1	–	0.4	0.28	120%	129%	0.4 mg/kg	-20%	10%	–	–	–	–	–
COc1ccc(-c2nc3cc[nH]cc-3n2)c(OC)c1	–	1	0.81	158%	172%	0.3 mg/kg	-17%	9%	–	–	–	–	–
CCCOc1cc(OC)ccc1-c1nc2cc[nH]cc-2n1	–	3.27	0.47	134%	336%	1.3 mg/kg	-59%	-7%	–	–	–	–	–
Cc1ccc(-c2nc3cc[nH]cc-3n2)c(C)c1	–	0	-0.1	93%	100%	1.4 mg/kg	-24%	12%	–	–	–	–	–
COc1cc([N+](=O)[O-])ccc1-c1nc2cc[nH]cc-2n1	–	0.61	0.58	142%	144%	0.015 mg/kg	-23%	5%	0.38	127%	–	–	–
COc1ccc(-c2nc3cccnc3[nH]2)cc1	–	1.01	0.06	104%	173%	–	–	–	–	–	ED50 not obtained	ED50 not obtained	ED50 not obtained
COc1cc([S+](C)[O-])ccc1-c1nc2cccnc2[nH]1 (stereo not drawn) [SULMAZOLE]	–	0.78	0.16	112%	156%	0.3 mg/kg	-10%	13%	–	–	–	–	–
COc1ccc(-c2nc3c[nH]cnc-3n2)c(OC)c1	–	1.59	0.24	117%	215%	0.3 mg/kg	-15%	7%	–	–	–	–	–
CSc1ccc(-c2nc3cc[nH]cc-3n2)cc1	–	1.55	0.21	115%	212%	4 mg/kg	-15%	0%	–	–	–	–	–
COc1cc([S+](C)[O-])ccc1-c1nc2c[nH]cnc-2n1 (stereo not drawn)	–	0.58	0.21	115%	142%	0.6 mg/kg	14%	8%	–	–	–	–	–
Nc1cc(-c2ccncc2)c[nH]c1=O [INAMRINONE]	–	1.25	0.61	143%	190%	1.3 mg/kg	-9%	11%	–	–	–	–	–
COc1cc([S+](C)[O-])ccc1-c1nc2cnccc2[nH]1 (stereo not drawn) [ISOMAZOLE]	–	2.33	1	172%	268%	0.03 mg/kg	-1%	7%	–	–	–	–	–
Cc1ccc(-c2nc3cc[nH]cc-3n2)cc1C	–	1.75	0.46	133%	226%	5.2 mg/kg	-53%	0%	–	–	–	–	–
COc1ccc(-c2nc3ccc[nH]c-3n2)c(OC)c1	–	2.27	1	172%	264%	0.8 mg/kg	-22%	18%	–	–	–	–	–
Cc1ccccc1-c1nc2cc[nH]cc-2n1	–	1.22	0.09	106%	188%	2.2 mg/kg	-20%	24%	–	–	–	–	–
COc1cc(SC)ccc1-c1nc2cc[nH]cc-2n1	–	0.59	0.6	143%	142%	0.2 mg/kg	-17%	9%	–	–	–	–	–
COc1cc(Cl)ccc1-c1nc2cc[nH]cc-2n1	–	0.9	0.86	162%	165%	0.23 mg/kg	-21%	14%	0.32	123%	–	–	–
COc1ccc(-c2nc3cc[nH]cc-3n2)cc1	–	1.46	0.07	104%	205%	1.7 mg/kg	-14%	17%	–	–	–	–	–
CCCCOc1ccc(-c2nc3cc[nH]cc-3n2)cc1	–	2.61	0.19	114%	288%	–	–	–	0.19	–	–	–	–
COc1ccc(-c2nc3cc[nH]cc-3n2)cc1OC	–	2.11	0.89	164%	252%	0.4 mg/kg	-9%	15%	–	–	–	–	–
